Source: PMC9501810, “Bitter Peptides YFYPEL, [sequence], and [sequence], Released during Gastric Digestion of Casein, Stimulate Mechanisms of Gastric Acid Secretion via Bitter Taste Receptors TAS2R16 and TAS2R38” (Journal of Agricultural and Food Chemistry, 2022)
Several values for one entry are separate records, joined by “and”; a condition that tells them apart may be missing. Identical values can stand only once.

Columns and labels:
Assay type in all cases: cell-based, human
TAS2R38 = assay: Proton secretion assay in TAS2R38 knock-down vs mock-transfected HGT-1 cells; conditions: TAS2R38kd vs mock-transfected HGT-1 cells, VAPFPEVF 17.5 µM, YFYPEL 0.03 µM, YQEPVLGPVRGPFPIIV 0.4 µM, 10 min, mean ± SEM; for reduction of the peptide-induced stimulation of proton secretion in TAS2R38kd cells: 72 h after 1 nM siRNA; for change of peptide-induced proton secretion, TAS2R38kd (in Figure 5E–G): negative = reduction
Method: The measurement of proton secretion from HGT-1 cells represents a well-established model for the identification of bitter compounds. By affecting extraoral bitter taste receptors with bitter compounds, a modulatory effect on proton secretion can be measured. For this purpose, cells were washed with KRHB and incubated with 3 μM of the intracellular pH indicator 1,5 carboxy-seminaphto-rhodafluor acetoxymethyl ester (SNARF-1-AM) under standard conditions. After 30 min, the cells were washed again with KRHB and then incubated with casein (0.01–10 μM equimolar related to the relevant forms αS1- and β-casein), hydrolysate (0.01–10 μM), or the peptides (0.01–200 μM). […] All substances were dissolved and diluted in KRHB. 1 mM histamine was used as a positive control. Measurements were performed using FlexStation 3 (Molecular Devices, USA). The excitation wavelength was 488 nm, and the emission wavelengths were 580 and 640 nm. For calibration (pH range 7.0–8.0), the intracellular and extracellular pH was adjusted with 2 μM nigericin in potassium buffer (20 mM NaCl, 110 mM KCl, 1 mM CaCl2, 1 mM MgSO4, 18 mM D-glucose, and 20 mM HEPES). The intracellular proton index (IPX) was calculated as the log2 value of the 580/640 ratio and compared with cells without treatment. Negative values represent increased secretion of protons and therefore stimulation of mechanisms regulating gastric acid secretion in HGT-1 cells. In contrast, positive values represent an inhibition of secretion compared to the untreated control.
Expression of TAS2R16 and TAS2R38 was reduced by treatment of HGT-1 cells with siRNA. 100,000 cells per well were seeded 1 day before the experiment into a 24-well plate. All reagents and siRNA were purchased from Thermo Fisher Scientific, USA (cytotoxicity was excluded by MTT). Transfection was performed with Lipofectamine RNAiMAX in Opti-Medium according to the manufacturer’s protocol. 1–50 nM of different siRNA sequences (HSS121396 and HSS181763 for TAS2R16 and HSS108754 and HSS108756 for TAS2R38) and three different incubation times (24, 48, and 72 h) were tested. Mock control experiments were performed analogously with 1 or 10 nM Stealth RNAi siRNA negative control. To verify the functionality of the transfection process, verified 10 nM siRNA targeting MAPK1 (VHS40312) was used (positive control). The transfection rate was checked by qPCR as described in section 2.11. For the proton secretion assays, 20,000 cells per well were seeded 1 day before transfection into a black 96-well plate. After 72 h of transfection, proton secretion activities of TAS2R16 knock-down or TAS2R38 knock-down HGT-1 were compared with the mock transfected cells by means of ΔIPX.

TAS2R4 = assay: RT-qPCR gene expression of TAS2R4 in HGT-1 cells; conditions: VAPFPEVF 17.5 µM, YFYPEL 0.03 µM, YQEPVLGPVRGPFPIIV 0.4 µM, normalized to PPIA and GAPDH and untreated cells, mean, n = 3–5
Method: (§1) For mRNA expression analysis, 800,000 cells were seeded in a T25 cell culture flask (25 cm^2) 1 day before the experiment. After incubation with 17.5 μM […], 0.03 μM YFYPEL, or 0.4 μM […] for 15, 30, 60, and 120 min, RNA was isolated using the peqGOLD RNA Kit (VWR Peqlab, USA) following the manufacturer’s protocol. Determination of RNA concentration (A260/A280 between 2.03 and 2.09) was performed on a NanoDrop One^c (Thermo Fisher Scientific Inc., USA). RNA integrity number (RIN 9.9–10.0, version 2.6, assay class Eukaryote Total RNA Nano) was analyzed using a 2100 Bioanalyzer (Agilent Technologies, USA). Removal of gDNA and synthesis of cDNA were performed using the iScript gDNA Clear cDNA Synthesis Kit (BioRad, Feldkirchen, Germany) following the manufacturer’s protocol. Real-time-qPCR (RT-qPCR) was performed with 50 ng cDNA amplified with SsoAdvanced Universal SYBR Green Supermix (Bio-Rad Laboratories, Inc., USA). The sequences of the forward and reverse primers of the 25 TAS2Rs were taken from Liszt et al.([13]) (Supporting Information Table-SI 3). Verified primers for the TAS1Rs (TAS1R1: qHsaCID0013443; TAS1R2: qHsaCID0016106; TAS1R3: qHsaCED0002321) and for MAPK1 (qHsaCEP0050000) were obtained from Bio-Rad Laboratories. PPIA[37] and GAPDH[38] were used as reference genes. The effects of the peptides on gene expression were analyzed in comparison to untreated control cells.

TAS2R10 = assay: RT-qPCR gene expression of TAS2R10 in HGT-1 cells; conditions: VAPFPEVF 17.5 µM, YFYPEL 0.03 µM, YQEPVLGPVRGPFPIIV 0.4 µM, normalized to PPIA and GAPDH and untreated cells, mean, n = 3–5
Method: as §1

TAS2R13 = assay: RT-qPCR gene expression of TAS2R13 in HGT-1 cells; conditions: VAPFPEVF 17.5 µM, YFYPEL 0.03 µM, YQEPVLGPVRGPFPIIV 0.4 µM, normalized to PPIA and GAPDH and untreated cells, mean, n = 3–5
Method: as §1

TAS2R39 = assay: RT-qPCR gene expression of TAS2R39 in HGT-1 cells; conditions: VAPFPEVF 17.5 µM, YFYPEL 0.03 µM, YQEPVLGPVRGPFPIIV 0.4 µM, normalized to PPIA and GAPDH and untreated cells, mean, n = 3–5
Method: as §1

TAS2R40 = assay: RT-qPCR gene expression of TAS2R40 in HGT-1 cells; conditions: VAPFPEVF 17.5 µM, YFYPEL 0.03 µM, YQEPVLGPVRGPFPIIV 0.4 µM, normalized to PPIA and GAPDH and untreated cells, mean, n = 3–5
Method: as §1

TAS2R41 = assay: RT-qPCR gene expression of TAS2R41 in HGT-1 cells; conditions: VAPFPEVF 17.5 µM, YFYPEL 0.03 µM, YQEPVLGPVRGPFPIIV 0.4 µM, normalized to PPIA and GAPDH and untreated cells, mean, n = 3–5
Method: as §1

TAS2R45 = assay: RT-qPCR gene expression of TAS2R45 in HGT-1 cells; conditions: VAPFPEVF 17.5 µM, YFYPEL 0.03 µM, YQEPVLGPVRGPFPIIV 0.4 µM, normalized to PPIA and GAPDH and untreated cells, mean, n = 3–5
Method: as §1

TAS2R60 = assay: RT-qPCR gene expression of TAS2R60 in HGT-1 cells; conditions: incubation 15/30/60/120 min, VAPFPEVF 17.5 µM, YFYPEL 0.03 µM, YQEPVLGPVRGPFPIIV 0.4 µM, expression not detectable with or without treatment
Method: as §1

TAS1R3 = assay: RT-qPCR gene expression of TAS1R3 in HGT-1 cells
Method: as §1

[1] = 15/30/60/120 min, VAPFPEVF 17.5 µM, YQEPVLGPVRGPFPIIV 0.4 µM, n = 3

Substance	reduction of the peptide-induced stimulation of proton secretion in TAS2R38kd cells (TAS2R38) [%]	change of peptide-induced proton secretion, TAS2R38kd (in Figure 5E–G) (TAS2R38) [%]	change in gene expression of TAS2R4 (TAS2R4; incubation 15 min) [fold change]	change in gene expression of TAS2R4 (TAS2R4; incubation 30 min) [fold change]	change in gene expression of TAS2R4 (TAS2R4; incubation 60 min) [fold change]	change in gene expression of TAS2R4 (TAS2R4; incubation 120 min) [fold change]	change in gene expression of TAS2R10 (TAS2R10; incubation 15 min)	change in gene expression of TAS2R10 (TAS2R10; incubation 30 min)	change in gene expression of TAS2R10 (TAS2R10; incubation 60 min) [fold change]	change in gene expression of TAS2R10 (TAS2R10; incubation 120 min) [fold change]	change in gene expression of TAS2R13 (TAS2R13; incubation 15 min) [fold change]	change in gene expression of TAS2R13 (TAS2R13; incubation 30 min) [fold change]	change in gene expression of TAS2R13 (TAS2R13; incubation 60 min) [fold change]	change in gene expression of TAS2R13 (TAS2R13; incubation 120 min) [fold change]	change in gene expression of TAS2R39 (TAS2R39; incubation 15 min) [fold change]	change in gene expression of TAS2R39 (TAS2R39; incubation 30 min) [fold change]	change in gene expression of TAS2R39 (TAS2R39; incubation 60 min) [fold change]	change in gene expression of TAS2R39 (TAS2R39; incubation 120 min) [fold change]	change in gene expression of TAS2R40 (TAS2R40; incubation 15 min) [fold change]	change in gene expression of TAS2R40 (TAS2R40; incubation 30 min) [fold change]	other results
YFYPEL [bitter casein peptide αS1-CN144–149]	62.8 ± 7.0	-62.8 ±7.0	1.24	0.81	0.92	1.13	0.64 fold change	0.41 fold change and 0.41 ± 0.05 fold change	0.72	0.90	1.14	0.53	0.78	0.88	1.21	0.42	0.62	0.45	1.90	0.82	change in gene expression of TAS2R40 (TAS2R40; incubation 60 min): 0.59 fold change; change in gene expression of TAS2R40 (TAS2R40; incubation 120 min): 0.75 fold change; change in gene expression of TAS2R41 (TAS2R41; incubation 15 min): 2.82 fold change; change in gene expression of TAS2R41 (TAS2R41; incubation 30 min): 1.56 fold change; change in gene expression of TAS2R41 (TAS2R41; incubation 60 min): 4.58 fold change; change in gene expression of TAS2R41 (TAS2R41; incubation 120 min): 3.00 fold change; change in gene expression of TAS2R45 (TAS2R45; incubation 15 min): 1.15 fold change; change in gene expression of TAS2R45 (TAS2R45; incubation 30 min): 0.54 fold change; change in gene expression of TAS2R45 (TAS2R45; incubation 60 min): 0.70 fold change; change in gene expression of TAS2R45 (TAS2R45; incubation 120 min): 0.94 fold change; change in gene expression of TAS2R60 (TAS2R60): not detected; change in expression of TAS1R3 (TAS1R3; 0.03 µM YFYPEL, 15 min, p < 0.0001): significant increase
YQEPVLGPVRGPFPIIV [bitter casein peptide βA1/A2-CN193–209]	45.2 ± 6.7	-45.2 ±6.7	0.79	1.71	1.60	1.21	0.52 fold change and 0.52 ± 0.06 fold change	0.78 fold change	0.90	1.04	0.70	1.65	1.16	1.31	0.53	1.16	0.73	0.53	0.92	1.78	change in gene expression of TAS2R40 (TAS2R40; incubation 60 min): 0.96 fold change; change in gene expression of TAS2R40 (TAS2R40; incubation 120 min): 0.86 fold change; change in gene expression of TAS2R41 (TAS2R41; incubation 15 min): 1.31 fold change; change in gene expression of TAS2R41 (TAS2R41; incubation 30 min): 1.71 fold change; change in gene expression of TAS2R41 (TAS2R41; incubation 60 min): 2.95 fold change; change in gene expression of TAS2R41 (TAS2R41; incubation 120 min): 4.61 fold change and 4.61 ± 2.03 fold change; change in gene expression of TAS2R45 (TAS2R45; incubation 15 min): 0.63 fold change; change in gene expression of TAS2R45 (TAS2R45; incubation 30 min): 1.25 fold change; change in gene expression of TAS2R45 (TAS2R45; incubation 60 min): 1.06 fold change; change in gene expression of TAS2R45 (TAS2R45; incubation 120 min): 0.84 fold change; change in gene expression of TAS2R60 (TAS2R60): not detected; change in expression of TAS1R3 (TAS1R3; [1]): no significant effect
VAPFPEVF [bitter casein peptide αS1-CN25–32]	37.5 ± 9.8	-37.5 ±9.8	0.50	1.14	0.95	1.42	0.34 fold change and 0.34 ± 0.05 fold change	0.76 fold change	0.91	1.15	0.44	1.28	1.01	1.92	0.39	1.37	0.55	1.16	0.81	1.54	change in gene expression of TAS2R40 (TAS2R40; incubation 60 min): 0.88 fold change; change in gene expression of TAS2R40 (TAS2R40; incubation 120 min): 1.42 fold change; change in gene expression of TAS2R41 (TAS2R41; incubation 15 min): 0.95 fold change; change in gene expression of TAS2R41 (TAS2R41; incubation 30 min): 2.32 fold change; change in gene expression of TAS2R41 (TAS2R41; incubation 60 min): 0.98 fold change; change in gene expression of TAS2R41 (TAS2R41; incubation 120 min): 1.90 fold change; change in gene expression of TAS2R45 (TAS2R45; incubation 15 min): 0.52 fold change; change in gene expression of TAS2R45 (TAS2R45; incubation 30 min): 1.08 fold change; change in gene expression of TAS2R45 (TAS2R45; incubation 60 min): 0.68 fold change; change in gene expression of TAS2R45 (TAS2R45; incubation 120 min): 1.17 fold change; change in gene expression of TAS2R60 (TAS2R60): not detected; change in expression of TAS1R3 (TAS1R3; [1]): no significant effect
